# Assay results: article PMC10889512, “Pyrimidine Schiff Bases: Synthesis, Structural Characterization and Recent Studies on Biological Activities” (International Journal of Molecular Sciences, 2024)
# Like-named read-outs stand apart in the source and are kept apart here.
# How the values were obtained:
# A172 [1] = tested on: A172; set-up: method as in PMID 33921108; conditions: cited from earlier work
# Enterococcus faecalis = tested on: Enterococcus faecalis; set-up: method as in PMID 33921108; conditions: cited from earlier work
# AGS cell line = tested on: AGS cell line; set-up: method as in Suttie et al. 87; conditions: ref Suttie et al. 87; cited from earlier work
# A172 [2] = assay: Neutral red uptake assay on A172; format: cell-based, human; conditions: Homo sapiens, A 172, 72 h, A172, 72 h treatment
# Experimental: (§1) Based on the results obtained for the RPTEC cell line, the following concentrations of 4b–d were chosen to be applied to neoplastic cell lines: 0.1, 1, 10, 25, 50, and 100 µM. A172, AGS, CaCo-2, HeLa, and HepG2 cancer cell lines were used to perform a neutral red uptake assay. The obtained results were compared with a negative control (cell lines incubated without tested compounds), and half-maximal inhibitory concentration (IC50) values were calculated. Cell lines were plated in 96-well plates at a density of 1 × 10^4 cells/well. After 24 h incubation, which allowed the cells to attach and start to proliferate, the culture media were replaced with 4a–d dissolved in the appropriate medium at concentrations of 1, 10, 50, 100, 150 and 200 µM. […] Negative (1% DMSO in medium) and positive (1 µM staurosporine) controls were also included. Plates were incubated at 37 °C for 24, 48, and 72 h before the neutral red uptake assay. The neutral red uptake assay was performed as described by Repetto et al.. Briefly, the medium from all wells was discarded, the attached cells were washed with 100 µL PBS, and then 100 µL of neutral red working solution in medium (40 µg/mL) was added to each well. The neutral red solution was incubated overnight in the same conditions as the cells and centrifuged before being added to the cells. The plates were incubated for at least 2 h at 37 °C, 5% CO2, in a humidified atmosphere. Next, the neutral red medium was removed, and the cells were washed with 100 µL PBS. A 100 µL quantity of destain solution consisting of 50% ethanol, 1% glacial acetic acid, and deionized water was added to each well. Plates were incubated for 30 min with constant shaking on a horizontal shaker at 37 °C. Absorption was measured at 540 nm excitation. The cells’ viability was calculated by comparing results from experimental sets with negative controls according to the formula: % viability=ODtest substance−ODblind/ODnegative control−ODblind×100
# AGS = assay: Neutral red uptake assay on AGS; format: cell-based, human; conditions: 72 h treatment
# Experimental: as §1
# CaCo-2 = assay: Neutral red uptake assay on CaCo-2; format: cell-based; conditions: Homo sapiens; CaCo-2, 72 h treatment
# Experimental: as §1
# HeLa = assay: Neutral red uptake assay on HeLa; format: cell-based; conditions: Homo sapiens, 72 h treatment
# Experimental: as §1
# HepG2 = assay: Neutral red uptake assay on HepG2; format: cell-based; conditions: Homo sapiens; HepG2, 72 h treatment
# Experimental: as §1
# E. coli 25922 = assay: Antimicrobial activity assay, microdilution; format: cell-based, Escherichia coli; conditions: concentration range from 0.5 µg/mL to 256 µg/mL
# Experimental: (§2) In vitro antimicrobial and antifungal activity was screened using microdilution and modified Richard’s medium. The assay was performed for compounds 4a, 4b, 4c, and 4d with seven reference microbial strains from ATTC (E. coli 25922, S. aureus 43300, K. pneumoniae 700603, A. baumannii 19606, P. aeruginosa 27853, E. faecalis 29212, and C. albicans 10231).
# (§3) Seven reference strains from the ATCC collection (Escherichia coli 25922, Staphylococcus aureus 43300, Klebsiella pneumoniae 13883, Acinetobacter baumannii 19606, Pseudomonas aeruginosa 27853, Enterococcus faecalis 29212, and Candida albicans 10231) were used. The assay was performed according to a modified version of Richard et al.’s protocol and ISO standards 20776-1:2019 and 16256:2021 [78, 79]. Microdilution with spectrophotometric measurement was used to calculate MIC50 (minimal inhibitory concentration which decreased the microorganisms’ viability to 50%) values. Briefly, compounds were prepared 100× concentrated in DMSO, and during the whole experiment, they were diluted to 1× with TSB. Serial dilutions of tested compounds were made directly on plates at a concentration range of 0.5 to 256 µg/mL. Microorganisms were incubated for 24 h at 37 °C (bacteria) or 25 °C (yeast) on Petri dishes with TSA. The bacteria/yeast suspensions were prepared at a density 5 × 10^5 CFU/mL (for bacteria) or 0.5–2.5 × 10^5 CFU/mL (for yeast) with TSB. Also, appropriate controls were contained in the experiment: the positive control consisted of a specific strain in TSB, and the negative control was TSB alone. To ensure that used strains were not modified and were still responding to antibacterial/antifungal compounds established by EUCAST, additional tests were conducted with levofloxacin, gentamicin, and amphotericin B. Microplates were incubated on a shaker for 24 h at 37 ± 1 °C or 25 ± 1 °C for the bacteria and yeast strains, respectively. After the incubation, spectrophotometric measurement was performed at 580 nm. MIC50 was calculated by comparing the results obtained for experimental sets with positive controls. Next, 50 µL aliquots of 1% (m/v) TTC solution were added to each well. The plates were incubated on the shaker for 24 h at 37/25 °C. In living microbial cells, colourless TTC is converted into red formazan crystals, which allows for visual observation and MBC/MFC (minimal bactericidal/fungicidal concentration) value assessment.
# S. aureus 43300 = assay: Antimicrobial activity assay, microdilution; format: cell-based, Staphylococcus aureus; conditions: concentration range from 0.5 µg/mL to 256 µg/mL
# Experimental: as §2, §3
# K. pneumoniae 700603 = assay: Antimicrobial activity assay, microdilution; format: cell-based, Klebsiella pneumoniae; conditions: concentration range from 0.5 µg/mL to 256 µg/mL
# Experimental: as §2, §3
# A. baumannii 19606 = assay: Antimicrobial activity assay, microdilution; format: cell-based, Acinetobacter baumannii; conditions: concentration range from 0.5 µg/mL to 256 µg/mL
# Experimental: as §2, §3
# P. aeruginosa 27853 = assay: Antimicrobial activity assay, microdilution; format: cell-based, Pseudomonas aeruginosa; conditions: concentration range from 0.5 µg/mL to 256 µg/mL
# Experimental: as §2, §3
# E. faecalis 29212 = assay: Antimicrobial activity assay, microdilution; format: cell-based, Enterococcus faecalis; conditions: concentration range from 0.5 µg/mL to 256 µg/mL
# Experimental: as §2, §3
# C. albicans 10231 = assay: Antifungal activity assay, microdilution; format: cell-based, Candida albicans; conditions: concentration range from 0.5 µg/mL to 256 µg/mL
# Experimental: as §2, §3
# RPTEC cell line = assay: Neutral red uptake assay on RPTEC cell line; format: cell-based; conditions: 100 µM, 72 h
# Experimental: In order to evaluate the cytotoxic properties of the tested compounds (4a–d), a neutral red uptake (NR) assay was performed on the RPTEC cell line. Four concentrations were used: 10, 100, 250, and 500 µM of each compound. The compound 4a was rejected from further investigation on cancer cell lines due to its high cytotoxicity (53 and 67% at 100 and 250 µM, respectively). Furthermore, at a concentration of 500 µM, the compound 4a crystallized, which influenced the obtained results by attenuating cytotoxic activity. Cell lines were plated in 96-well plates at a density of 1 × 10^4 cells/well. After 24 h incubation, which allowed the cells to attach and start to proliferate, the culture media were replaced with 4a–d dissolved in the appropriate medium at concentrations of 1, 10, 50, 100, 150 and 200 µM. […] Negative (1% DMSO in medium) and positive (1 µM staurosporine) controls were also included. Plates were incubated at 37 °C for 24, 48, and 72 h before the neutral red uptake assay. […] A 100 µL quantity of destain solution consisting of 50% ethanol, 1% glacial acetic acid, and deionized water was added to each well. […] Absorption was measured at 540 nm excitation. The cells’ viability was calculated by comparing results from experimental sets with negative controls according to the formula: % viability=ODtest substance−ODblind/ODnegative control−ODblind×100
# A172 cell line = tested on: A172 cell line; set-up: method as in PMID 30405885; conditions: A172, 72 h, 200 µM; cited from earlier work
Structure (SMILES),MIC and MBC/MFC activity (E. coli 25922),MIC and MBC/MFC activity (S. aureus 43300),MIC and MBC/MFC activity (K. pneumoniae 700603),MIC and MBC/MFC activity (A. baumannii 19606),MIC and MBC/MFC activity (P. aeruginosa 27853),MIC and MBC/MFC activity (E. faecalis 29212),MIC and MBC/MFC activity (C. albicans 10231),melting point,other results
"CCOc1ccc(N=Cc2c(C)nc(-c3ccccc3)nc2Nc2ccc(F)cc2)cc1 [compound III, 5-[(4-ethoxyphenyl)imino]methyl-N-(4-fluorophenyl)-6-methyl-2-phenylpyrimidin-4-amine]",,,,,,,,,IC50 (A172 [1]): 526 µM; MBC (Enterococcus faecalis): 32 µg/mL; MIC (Enterococcus faecalis): 16 µg/mL
COc1cccc2c1C(=O)c1c(O)c3c(c(O)c1C2=O)C[C@@](O)(C(=O)CO)C[C@@H]3O[C@H]1C[C@H](N)[C@@H](O)[C@H](C)O1 [epirubicin],,,,,,,,,LD50 (AGS cell line): 0.23 µM
"COc1ccccc1N=Cc1c(C)nc(-c2ccccc2)nc1Nc1ccc(F)cc1 [compound 4c, N-(4-fluorophenyl)-6-methyl-2-phenyl-5-{[(2-methoxyphenyl)imino]methyl}pyrimidin-4-amine]",Neither MIC nor MBC/MFC activity was observed,Neither MIC nor MBC/MFC activity was observed,Neither MIC nor MBC/MFC activity was observed,Neither MIC nor MBC/MFC activity was observed,Neither MIC nor MBC/MFC activity was observed,Neither MIC nor MBC/MFC activity was observed,Neither MIC nor MBC/MFC activity was observed,167 to 169 °C,"IC50 (A172 [2]): > 100 µM; IC50 (AGS; Homo sapiens, 72 h): > 100 µM; IC50 (CaCo-2): > 100 µM; IC50 (HeLa): > 100 µM; IC50 (HepG2): > 100 µM"
O=c1[nH]cc(F)c(=O)[nH]1 [5-fluorouracil],,,,,,,,,LD50 (AGS cell line): 153.7 µM
"Cc1nc(-c2ccccc2)nc(Nc2ccc(F)cc2)c1C=Nc1ccc(Cl)c(C(F)(F)F)c1 [compound 4d, 5-[{[4-chloro-3-(trifluoromethyl)phenyl]imino}methyl]-N-(4-fluorophenyl)-6-methyl-2-phenylpyrimidin-4-amine]",Neither MIC nor MBC/MFC activity was observed,Neither MIC nor MBC/MFC activity was observed,Neither MIC nor MBC/MFC activity was observed,Neither MIC nor MBC/MFC activity was observed,Neither MIC nor MBC/MFC activity was observed,Neither MIC nor MBC/MFC activity was observed,Neither MIC nor MBC/MFC activity was observed,210 °C,"IC50 (A172 [2]): > 100 µM; IC50 (AGS): > 100 µM; IC50 (AGS; Homo sapiens, 72 h): 190 µM; IC50 (CaCo-2): > 100 µM; IC50 (HeLa): > 100 µM; IC50 (HepG2): > 100 µM"
"Cc1nc(-c2ccccc2)nc(Nc2ccc(F)cc2)c1C=Nc1ccc(F)cc1 [compound 4a, N-(4-fluorophenyl)-5-{[(4-fluorophenyl)imino]methyl}-6-methyl-2-phenylpyrimidin-4-amine]",Neither MIC nor MBC/MFC activity was observed,Neither MIC nor MBC/MFC activity was observed,Neither MIC nor MBC/MFC activity was observed,Neither MIC nor MBC/MFC activity was observed,Neither MIC nor MBC/MFC activity was observed,Neither MIC nor MBC/MFC activity was observed,Neither MIC nor MBC/MFC activity was observed,178 °C,cytotoxicity (RPTEC cell line): 53%
"Cn1nnc2c(C(N)=O)ncn2c1=O [TMZ, temozolomide]",,,,,,,,,cell viability (A172 cell line): below 70%
